Test results from ChEMBL document CHEMBL4808200, “Identification of a Series of N-Methylpyridine-2-carboxamides as Potent and Selective Inhibitors of the Second Bromodomain (BD2) of the Bromo and Extra Terminal Domain (BET) Proteins” (J Med Chem, 2021).
Converted amounts (≈) assume the structure as drawn.

Tests used:
[1] = Unbound clearance in Wistar Han rat at 1 mg/kg, iv administered as 1 hr infusion or 3 mg/kg, po administered via gavage by LC-MS/MS analysis; format: ADME, organism-based; conditions: in vivo
[2] = Clearance in Beagle dog at 0.5 mg/kg, iv administered as 1 hr infusion on day 1 and day 7 to achieve a target dose of 1 mg/kg by LC-MS/MS analysis; format: ADME, organism-based, Canis lupus familiaris; conditions: in vivo, dose 0.5-1 mg/kg, time 7 day
[3] = Volume of distribution at steady state in Beagle dog at 0.5 mg/kg, iv administered as 1 hr infusion on day 1 and day 7 to achieve a target dose of 1 mg/kg by LC-MS/MS analysis; format: ADME, organism-based, Canis lupus familiaris; conditions: in vivo, dose 0.5-1 mg/kg, time 7 day, read-out: Vdss
[4] = Oral bioavailability in Wistar Han rat at 3 mg/kg administered via gavage by LC-MS/MS analysis; format: ADME, organism-based; conditions: in vivo
[5] = Clearance in Wistar Han rat at 1 mg/kg, iv administered as 1 hr infusion or 3 mg/kg, po administered via gavage by LC-MS/MS analysis; format: ADME, organism-based; conditions: in vivo
[6] = Intrinsic clearance in human cryopreserved pooled hepatocytes at 0.5 uM measured up to 120 mins by LC-MS/MS analysis; format: ADME, tissue-based, Hepatocyte; conditions: 2 h
[7] = Volume of distribution at steady state in Wistar Han rat at 1 mg/kg, iv administered as 1 hr infusion or 3 mg/kg, po administered via gavage by LC-MS/MS analysis; format: ADME, organism-based; conditions: in vivo, read-out: Vdss
[8] = Clearance in Beagle dog at 0.5 mg/kg, iv administered as 1 hr infusion on day 1 and day 7 to achieve a target dose of 1 mg/kg by LC-MS/MS analysis relative to liver blood flow; format: ADME, organism-based, Canis lupus familiaris; conditions: in vivo, 168 h, dose 0.5-1 mg/kg, time 7 day
[9] = Solubility of the compound in pH 6.5 FaSSIF at […] measured after 16 hrs by HPLC analysis; format: physicochemical
[10] = Unbound clearance in Beagle dog at 0.5 mg/kg, iv administered as 1 hr infusion on day 1 and day 7 to achieve a target dose of 1 mg/kg by LC-MS/MS analysis; format: ADME, organism-based, Canis lupus familiaris; conditions: in vivo, 168 h, dose 0.5-1 mg/kg, time 7 day
[11] = Intrinsic clearance in Beagle dog cryopreserved pooled hepatocytes at 0.5 uM measured up to 120 mins by LC-MS/MS analysis; format: ADME, tissue-based, Canis lupus familiaris, Hepatocyte; conditions: 2 h
[12] = Permeability of the compound at pH 7.4 by artificial membrane permeability assay; format: ADME; conditions: PAMPA, read-out: permeability
[13] = physchem; conditions: buffer, pH 7.4
[14] = Intrinsic clearance in Wistar Han rat cryopreserved pooled hepatocytes at 0.5 uM measured up to 60 mins by LC-MS/MS analysis; format: ADME, tissue-based, Hepatocyte; conditions: 1 h
[15] = Half life in Beagle dog at 0.5 mg/kg, iv administered as 1 hr infusion on day 1 and day 7 to achieve a target dose of 1 mg/kg by LC-MS/MS analysis; format: ADME, organism-based, Canis lupus familiaris; conditions: in vivo, dose 0.5-1 mg/kg, time 7 day
[16] = Half life in Wistar Han rat at 1 mg/kg, iv administered as 1 hr infusion or 3 mg/kg, po administered via gavage by LC-MS/MS analysis; format: ADME, organism-based; conditions: in vivo
[17] = Oral bioavailability in Beagle dog; format: ADME, organism-based, Canis lupus familiaris; conditions: in vivo

SMILES	CL free [1]	clearance [2]	Vd [3]	bioavailability [4]	clearance [5]	CLH [6]	Vd [7]	QH [8]	solubility at 16 h [9]	CL free [10]	CLH [11]	Papp [12]	chromatographic logD [13]	CLH [14]	half-life [15]	half-life [16]	bioavailability [17]
CNC(=O)c1cc(C(=O)N[C@H]2[C@@H]3COC[C@@H]32)cc(Cc2ccccc2)n1	168 mL/min/kg	43 mL/min/kg	1.4 L/kg	62%	22 mL/min/kg	< 0.45 mL/min/g	1.7 L/kg	80%	112 µg/mL (≈ 319 µM)	122 mL/min/kg	0.76 mL/min/g	21.5 ×10⁻⁶ cm/s	3.5	1.4 mL/min/g	24 min	18 min	10%
CNC(=O)c1cc(C(=O)N[C@H]2[C@@H]3COC[C@@H]32)cc(Cc2cccc3[nH]ccc23)n1	206 mL/min/kg	4 mL/min/kg	0.9 L/kg	69%	39 mL/min/kg	< 0.45 mL/min/g	1.8 L/kg	–	91 µg/mL (≈ 233 µM)	19 mL/min/kg	< 0.65 mL/min/g	16 ×10⁻⁶ cm/s	3.1	2.05 mL/min/g	150 min	42 min	41%
CNC(=O)c1cc(C(=O)N[C@H]2[C@@H]3COC[C@@H]32)cc([C@@H](C)c2ccccc2)n1	147 mL/min/kg	44 mL/min/kg	1.3 L/kg	39%	52 mL/min/kg	< 0.45 mL/min/g	1.7 L/kg	–	117 µg/mL (≈ 320 µM)	171 mL/min/kg	< 0.65 mL/min/g	37 ×10⁻⁶ cm/s	4.1	2.03 mL/min/g	24 min	24 min	14%
